Results as given in US20250179032A1, “HETEROCYCLIC INHIBITORS OF GLUT9 FOR TREATMENT OF DISEASE” (HORIZON THERAPEUTICS IRELAND DAC, priority 2022, published 2025).
Where two headings read alike, the source gives them in different places.

Molecular target: T1, H. sapiens SLC2A9 variant 2 (GLUT9B) (Homo sapiens, UniProt Q9NRM0)
T1 sequence (Q9NRM0 1-511 isoform Q9NRM0-2): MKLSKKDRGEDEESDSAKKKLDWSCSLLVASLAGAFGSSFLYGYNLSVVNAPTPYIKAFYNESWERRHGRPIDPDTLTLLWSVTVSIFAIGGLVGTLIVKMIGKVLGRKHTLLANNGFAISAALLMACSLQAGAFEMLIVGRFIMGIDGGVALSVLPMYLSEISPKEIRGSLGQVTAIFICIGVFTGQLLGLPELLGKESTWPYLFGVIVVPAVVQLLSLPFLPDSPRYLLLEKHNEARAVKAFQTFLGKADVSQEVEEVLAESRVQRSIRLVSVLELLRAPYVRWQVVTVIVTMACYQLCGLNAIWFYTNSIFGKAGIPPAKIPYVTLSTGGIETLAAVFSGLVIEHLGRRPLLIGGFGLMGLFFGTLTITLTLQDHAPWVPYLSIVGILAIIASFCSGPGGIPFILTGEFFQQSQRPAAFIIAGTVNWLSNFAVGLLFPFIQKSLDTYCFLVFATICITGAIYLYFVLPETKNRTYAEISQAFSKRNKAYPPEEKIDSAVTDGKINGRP
Test: GLUT9 functional assay: uric acid uptake in HEK293T cells, allantoin formation by MS/MS as proxy of GLUT9B inhibition
Type: cell-based
Conditions: HEK293T cells stably expressing GLUT9B and transiently A. oryzae uricase, uric acid 0.3 mM, 37° C.
How it was run: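 HEK293T cells stably expressing human GLUT9B and transiently expressing A. oryzae uricase, exposed across a 12-point curve to 0.3 mM uric acid (Km) in sodium gluconate buffer pH 7.4 for 15 or 60 min at 37° C. Allantoin in lysates quantified by RapidFire MS/MS (positive ion) against a matrix-matched standard curve as proxy for uptake.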

[1] = 15 minute assay, read-out: 15 min IC50
[2] = 60 minute assay, read-out: 60 min IC50

SMILES	IC50 [1]	IC50 [2]
O=C(O)C1CCN(c2nc(CCCC(F)(F)F)cnc2-c2ccc3c(c2)OC(F)(F)O3)CC1 [Compound 160, 1-(3-(2,2-difluorobenzo[d][1,3]dioxol-5-yl)-6-(4,4,4-trifluorobutyl)pyrazin-2-yl)piperidine-4-carboxylic acid]	0.5 to 2 µM	
O=C(O)C1CCN(c2nc(CCC(F)(F)F)cnc2-c2ccc(OC(F)(F)F)cc2)CC1 [Compound 161, 1-(3-(4-(trifluoromethoxy)phenyl)-6-(3,3,3-trifluoropropyl)pyrazin-2-yl)piperidine-4-carboxylic acid]	0.5 to 2 µM	
O=C(O)C1CCN(c2nc(CCC(F)(F)F)cnc2-c2ccc(C(F)(F)F)cc2)CC1 [Compound 162, 1-(3-(4-(trifluoromethyl)phenyl)-6-(3,3,3-trifluoropropyl)pyrazin-2-yl)piperidine-4-carboxylic acid]	0.5 to 2 µM	
O=C(O)C1CCN(c2nc(CCC(F)(F)F)cnc2-c2ccc(OC(F)F)cc2)CC1 [Compound 163, 1-(3-(4-(difluoromethoxy)phenyl)-6-(3,3,3-trifluoropropyl)pyrazin-2-yl)piperidine-4-carboxylic acid]	0.5 to 2 µM	
O=C(O)C1CCN(c2nc(CCC(F)(F)F)cnc2-c2ccc3c(c2)OC(F)(F)O3)CC1 [Compound 164, 1-(3-(2,2-difluorobenzo[d][1,3]dioxol-5-yl)-6-(3,3,3-trifluoropropyl)pyrazin-2-yl)piperidine-4-carboxylic acid]	0.5 to 2 µM	
O=C(O)C1(O)CCN(c2nc(CCCC(F)(F)F)cnc2-c2cc(F)c3occc3c2)CC1 [Compound 165, 1-(3-(7-fluorobenzofuran-5-yl)-6-(4,4,4-trifluorobutyl)pyrazin-2-yl)-4-hydroxypiperidine-4-carboxylic acid]	< 0.5 µM	
O=C(O)C1(O)CCN(c2nc(CCCC(F)(F)F)cnc2-c2ccc3c(c2)OCO3)CC1 [Compound 166, 1-(3-(benzo[d][1,3]dioxol-5-yl)-6-(4,4,4-trifluorobutyl)pyrazin-2-yl)-4-hydroxypiperidine-4-carboxylic acid]	0.5 to 2 µM	
COCCOc1ccc(-c2ncc(CCCC(F)(F)F)nc2N2CCC(O)(C(=O)O)CC2)cc1 [Compound 167, 4-hydroxy-1-(3-(4-(2-methoxyethoxy)phenyl)-6-(4,4,4-trifluorobutyl)pyrazin-2-yl)piperidine-4-carboxylic acid]	> 2 µM	
COCCCc1cnc(-c2cc(F)c3occc3c2)c(N2CCC(C(=O)O)CC2)c1 [Compound 168, 1-(2-(7-Fluorobenzofuran-5-yl)-5-(3-Methoxypropyl)Pyridin-3-yl)piperidine-4-carboxylic acid]	< 0.5 µM	< 0.5 µM
COCCCc1cnc(-c2cc(F)c3c(c2)OCO3)c(N2CCC(C(=O)O)CC2)c1 [Compound 169, 1-(2-(7-fluorobenzo[d][1,3]dioxol-5-yl)-5-(3-methoxypropyl)pyridin-3-yl)piperidine-4-carboxylic acid]	< 0.5 µM	
COCCCc1cnc(-c2cnc3occc3c2)c(N2CCC(C(=O)O)CC2)c1 [Compound 170, 1-(2-(Furo[2,3-b]Pyridin-5-yl)-5-(3-Methoxypropyl)Pyridin-3-yl)piperidine-4-carboxylic acid]	0.5 to 2 µM	> 2 µM
COCCCc1cnc(-c2ccc3c(c2)OCO3)c(N2CCC(O)(C(=O)O)CC2)n1 [Compound 171, 1-(3-(benzo[d][1,3]dioxol-5-yl)-6-(3-methoxypropyl)pyrazin-2-yl)-4-hydroxypiperidine-4-carboxylic acid]	> 2 µM	
COCCCc1cnc(-c2ccc3occc3c2)c(N2CCC(C(=O)O)CC2)n1 [Compound 172, 1-(3-(benzofuran-5-yl)-6-(3-Methoxypropyl)Pyrazin-2-yl)Piperidine-4-carboxylic acid]	< 0.5 µM	< 0.5 µM
COCCCc1cnc(-c2cc(F)c3occc3c2)c(N2CCC(C(=O)O)CC2)n1 [Compound 173, 1-(3-(7-Fluorobenzofuran-5-yl)-6-(3-Methoxypropyl)Pyrazin-2-yl)piperidine-4-carboxylic acid]	< 0.5 µM	< 0.5 µM
